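Following 48 hours of exposure in 96-well plates, responses at five concentrations were used to interpolate endpoints linearly. At the TGI there is no net growth.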
Experiments:
Assay in all cases: NCI anticancer screen, dose series, 48 h
[1] = tested on: A498 renal
[2] = tested on: A549 NSCLC
[3] = tested on: BT-549 breast
[4] = tested on: CAKI-1 renal
[5] = tested on: CCRF-CEM leukemia
[6] = tested on: COLO 205 colon
[7] = tested on: HCC-2998 colon
[8] = tested on: HCT-116 colon
[9] = tested on: HCT-15 colon
[10] = tested on: HOP-62 NSCLC
[11] = tested on: HOP-92 NSCLC
[12] = tested on: HT29 colon
[13] = tested on: IGROV1 ovarian
[14] = tested on: K-562 leukemia
[15] = tested on: KM12 colon
[16] = tested on: MDA-MB-435
[17] = tested on: MDA-N
[18] = tested on: MOLT-4 leukemia
[19] = tested on: NCI-H23 lung
[20] = tested on: NCI-H460 lung
[21] = tested on: NCI-H522 lung
[22] = tested on: OVCAR-3 ovarian
[23] = tested on: OVCAR-4 ovarian
[24] = tested on: OVCAR-5 ovarian
[25] = tested on: PC-3 prostate
[26] = tested on: RPMI-8226 leukemia
[27] = tested on: SF-295 CNS
[28] = tested on: SK-MEL-2 melanoma
[29] = tested on: SK-MEL-28 melanoma
[30] = tested on: SK-MEL-5 melanoma
[31] = tested on: SK-OV-3 ovarian
[32] = tested on: SNB-19 CNS
[33] = tested on: SNB-75 CNS
[34] = tested on: SW-620 colon
[35] = tested on: U251 CNS
[36] = tested on: UACC-257 melanoma
[37] = tested on: UACC-62 melanoma
[38] = tested on: UO-31 renal
[39] = tested on: 786-0 renal
[40] = tested on: ACHN renal
[41] = tested on: DU-145 prostate
[42] = tested on: EKVX NSCLC
[43] = tested on: HL-60(TB) leukemia
[44] = tested on: HS 578T breast
[45] = tested on: LOX IMVI melanoma
[46] = tested on: M14 melanoma
[47] = tested on: MALME-3M melanoma
[48] = tested on: MCF7 breast
[49] = tested on: NCI-H226 lung
[50] = tested on: OVCAR-8 ovarian
[51] = tested on: SF-268 CNS
[52] = tested on: SF-539 CNS
[53] = tested on: SR leukemia
[54] = tested on: TK-10 renal
[55] = tested on: MDA-MB-231 breast
[56] = tested on: NCI/ADR-RES ovarian
[57] = tested on: RXF 393 renal
[58] = tested on: SN12C renal

For CC(=O)OC1COC(n2c3ccccc3c3ccc4c5ccccc5[nH]c4c32)C(OC(C)=O)C1OC(C)=O (stereo not given), the TGI [1] was 77.7 µM, the TGI [2] was > 100 µM and the TGI [3] was > 100 µM. For the same molecule, the TGI [4] was 65.9 µM, the TGI [5] was > 100 µM and the TGI [6] was > 100 µM. The TGI [7] was > 100 µM, the TGI [8] was > 100 µM and the TGI [9] was > 100 µM. The TGI [10] was 53.3 µM, the TGI [11] was 87.3 µM and the TGI [12] was 62.8 µM. It also gave a TGI [13] of 30.8 µM, a TGI [14] of 82.4 µM and a TGI [15] of 37.9 µM. For the same molecule, the TGI [16] was > 100 µM, the TGI [17] was > 100 µM and the TGI [18] was > 100 µM. For the same molecule, the TGI [19] was > 100 µM, the TGI [20] was 57.6 µM and the TGI [21] was 44.6 µM. For the same molecule, the TGI [22] was > 100 µM, the TGI [23] was > 100 µM and the TGI [24] was > 100 µM. The TGI [25] was 96.5 µM, the TGI [26] was > 100 µM and the TGI [27] was 33.3 µM. The TGI [28] was > 100 µM, the TGI [29] was > 100 µM and the TGI [30] was > 100 µM. For the same molecule, the TGI [31] was 52.1 µM, the TGI [32] was > 100 µM and the TGI [33] was 33.2 µM. For the same molecule, the TGI [34] was > 100 µM, the TGI [35] was 74.2 µM and the TGI [36] was > 100 µM. The TGI [37] was > 100 µM and the TGI [38] was > 100 µM.
With O=C(O)C(C(C(=O)O)P(=O)(O)O)P(=O)(O)O (stereo not given) the TGI [39] was > 100 µM, the TGI [1] was > 100 µM and the TGI [2] was > 100 µM. The TGI [40] was > 100 µM, the TGI [3] was > 100 µM and the TGI [5] was > 100 µM. The TGI [6] was > 100 µM, the TGI [41] was > 100 µM and the TGI [42] was > 100 µM. For the same molecule, the TGI [7] was > 100 µM, the TGI [8] was > 100 µM and the TGI [9] was > 100 µM. For the same molecule, the TGI [43] was > 100 µM, the TGI [11] was > 100 µM and the TGI [44] was > 100 µM. For the same molecule, the TGI [12] was > 100 µM, the TGI [13] was > 100 µM and the TGI [14] was > 100 µM. The TGI [15] was > 100 µM, the TGI [45] was > 100 µM and the TGI [46] was > 100 µM. For the same molecule, the TGI [47] was > 100 µM, the TGI [48] was > 100 µM and the TGI [16] was > 100 µM. The TGI [17] was > 100 µM, the TGI [18] was > 100 µM and the TGI [49] was > 100 µM. The TGI [22] was > 100 µM, the TGI [23] was > 100 µM and the TGI [24] was > 100 µM. For the same molecule, the TGI [50] was > 100 µM, the TGI [25] was > 100 µM and the TGI [26] was > 100 µM. The TGI [51] was > 100 µM, the TGI [52] was > 100 µM and the TGI [28] was > 100 µM. The TGI [29] was > 100 µM, the TGI [30] was > 100 µM and the TGI [31] was > 100 µM. For the same molecule, the TGI [32] was > 100 µM, the TGI [33] was > 100 µM and the TGI [53] was > 100 µM. For the same molecule, the TGI [34] was > 100 µM, the TGI [54] was > 100 µM and the TGI [35] was > 100 µM. The TGI [37] was > 100 µM and the TGI [38] was > 100 µM.
With C/C(=N/NC(=S)N1CCCCC1)c1cccc(/C(C)=N\NC(=S)N2CCCCC2)n1 the TGI [39] was 3.46 µM, the TGI [1] was 3.16 µM and the TGI [2] was 7.29 µM. For the same molecule, the TGI [40] was 3.02 µM, the TGI [3] was 3.4 µM and the TGI [4] was 3.93 µM. For the same molecule, the TGI [5] was > 100 µM, the TGI [6] was 10.1 µM and the TGI [41] was 6.35 µM. For the same molecule, the TGI [42] was 5.79 µM, the TGI [7] was 4.01 µM and the TGI [8] was 3.64 µM. For the same molecule, the TGI [9] was 4.25 µM, the TGI [43] was 5.66 µM and the TGI [10] was 15.9 µM. The TGI [44] was 6.57 µM, the TGI [12] was 7.22 µM and the TGI [13] was 4.45 µM. For the same molecule, the TGI [14] was 6.65 µM, the TGI [15] was 6.14 µM and the TGI [45] was 5.4 µM. It also gave a TGI [47] of 4.58 µM, a TGI [48] of 4.46 µM and a TGI [55] of 3.99 µM. The TGI [16] was 3.62 µM, the TGI [17] was 3.17 µM and the TGI [18] was 6.38 µM. For the same molecule, the TGI [49] was 5.54 µM, the TGI [19] was > 100 µM and the TGI [20] was 4.75 µM. For the same molecule, the TGI [21] was 4.34 µM, the TGI [56] was 4.72 µM and the TGI [22] was 5.49 µM. The TGI [24] was 2.44 µM, the TGI [50] was 3.19 µM and the TGI [25] was 4.03 µM. The TGI [26] was 6.84 µM, the TGI [57] was 5.15 µM and the TGI [51] was 9.06 µM. It also gave a TGI [27] of 4.06 µM, a TGI [52] of 3.9 µM and a TGI [28] of 4.2 µM. For the same molecule, the TGI [29] was 4.32 µM, the TGI [30] was 3.54 µM and the TGI [31] was 3.56 µM. The TGI [58] was 4.83 µM, the TGI [32] was 7.09 µM and the TGI [33] was 6.53 µM. The TGI [53] was 6.58 µM, the TGI [34] was 10.6 µM and the TGI [54] was 3.69 µM. The TGI [35] was 4.45 µM, the TGI [36] was 6.85 µM and the TGI [37] was 5.54 µM. For the same molecule, the TGI [38] was 2.78 µM.
